Experimental findings from patent US6541463B1, “Inhibitors of type 5 and type 3 17β-hydroxysteroid dehydrogenase and methods for their use” (Endorecherche, Inc., priority 1998, dated 2003) are described below.

What is called IC50 is the concentration needed to halve the response being measured. Broadly, the melting point is the temperature, or range, at which the solid turns liquid.

Read-outs that look alike come from different tables or passages of the source.

Series [1] has as its target T1, human type 3 17β-hydroxysteroid dehydrogenase (Homo sapiens, UniProt P37058).
T1 construct: expressed in transfected cells; host or cells: 293 cells, transient transfection; microsomal fraction (100 000×g pellet)
T1 sequence (P37058 1-310): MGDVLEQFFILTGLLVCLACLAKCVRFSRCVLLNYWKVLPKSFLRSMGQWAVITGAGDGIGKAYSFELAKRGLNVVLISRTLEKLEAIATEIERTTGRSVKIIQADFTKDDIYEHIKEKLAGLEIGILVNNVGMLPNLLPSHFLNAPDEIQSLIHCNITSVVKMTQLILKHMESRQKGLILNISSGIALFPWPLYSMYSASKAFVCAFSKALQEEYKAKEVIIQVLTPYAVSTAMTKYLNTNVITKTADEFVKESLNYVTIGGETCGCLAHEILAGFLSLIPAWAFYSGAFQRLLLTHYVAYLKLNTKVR
Description: Enzymatic assay for type 3 17β-HSD. Type of series: biochemical. From the text: Enzymatic assay for types 1, 2, and 3 17β-HSD and types 1 and 3 3α-HSD”. Lower numbers of IC50 are desirable. Blank means that a determination was not done. The % of inhibition at the concentration of 3.10^−6M determined in preliminary screening test is reported in square braquets.
Enzyme sources. 293 cells transiently transfected with expression vectors encoding types 1, 2 and 3 17β-HSD (Luu-The et al., J. Steroid Biochem. Molec. Biol., 55: 581-587, 1995), types 1 and 2 5α-reductase (Luu-The et al., J. Invest. Dermatol., 102: 221-226, 1994) and types 1 and 3 3α-HSD (Dufort et al. Biochem. Biophys. Res. Commun. 228: 474-479, 1996), using the calcium phosphate procedure (Kingston et al., In: Current Protocols in Molecular Biology. Edited by E. M. Ausbel, R. Brent, R. E. Kingston, D. D. Moore, J. G. Seidman, J. A. Smith, K. Struhl. John Wiley & Sons, New York, pp. 9.1.1-9.1.9, 1991; Luu-The et al., J. Invest. Dermatol., 102: 221-226, 1994). For assays using cell subfractions, cells were sonicated in 50 mM sodium phosphate buffer (pH 7.4), containing 20% glycerol and 1 mM EDTA and centrifuged at 10 000×g for 30 min before centrifugation for 100 000×g for 1 h to separate the mitochondrial and microsomal fractions, respectively. The cytosol fractions (100 000×g supernatant) was used to determine type 1 activity while the microsomal fraction (pellet at 100 000×g) was used for measurement of types 2 and 3 17β-HSD activities.
Incubation. The enzymatic reaction was carried out at 37° C. in 1 ml of 50 mM sodium phosphate buffer, pH 7.4, containing 20% glycerol, 1 mM EDTA, and 2 mM cofactors (NADPH or AND^+) for 1 h in the presence of 0.1 μM ^14C-labeled substrate: estrone and 4-dione for types 1 and […] 17β-HSD, respectively, testosterone for type 2 17β-HSD as well as types 1 and 2 5α-reductases, DHT for types 1 and 3 3α-HSD activities, and the indicated concentration of inhibitor.
Extraction of metabolites, migration on TLC and quantification were as described above for the assay of type 5 17β-HSD.

As to `COCCOc1ccc2c(c1)CC[C@@H]1[C@@H]2CC[C@]2(C)C(=O)CC[C@@H]12` [EM-1073, 3-Methyloxyethyloxy-1,3,5(10)-estratrien-17-one], the “% of Inhibition of the Type 3 17β-HSD Activity” value worked out at 87% in series [1] (3.10^−6 M inhibitor) and 51% in series [1] (3.10^−7 M inhibitor).

Regarding `CSCOc1ccc2c(c1)CC[C@@H]1[C@@H]2CC[C@]2(C)C(=O)CC[C@@H]12` [EM-1066, 3-Methylthiomethyloxy-1,3,5(10)-estratrien-17-one], the “% of Inhibition of the Type 3 17β-HSD Activity” value in series [1] (3.10^−6 M inhibitor) is listed as 93%; in series [1] (3.10^−7 M inhibitor) it was 63%.

As to `C[C@]12CC[C@](O)(CCc3ccccc3)C[C@@H]1CC[C@@H]1[C@@H]2CC[C@]2(C)C(=O)CC[C@@H]12` [EM-1324-CS, 3α-hydroxy-3β-phenylethyl-5α-androstane-17-one], in series [1] (Table 7, read-out: Inhibition of the Type 3 17β-HSD Activity IC50), the IC50 was 31 ± 4 nM.

`COCSc1ccc2c(c1)CC[C@@H]1[C@@H]2CC[C@]2(C)C(=O)CC[C@@H]12` [EM-1064, 3-Methoxymethylthio-Estra-1,3,5(10)-trien-17-one] returned a melting point of 55 °C. Moreover, the “% of Inhibition of the Type 3 17β-HSD Activity” value in series [1] (3.10^−6 M inhibitor) is 92%. For the same compound, the “% of Inhibition of the Type 3 17β-HSD Activity” value in series [1] (3.10^−7 M inhibitor) is 62%.

For `CCOCCOc1ccc2c(c1)CC[C@@H]1[C@@H]2CC[C@]2(C)C(=O)CC[C@@H]12` [EM-1071, 3-Ethyloxyethyloxy-1,3,5(10)-estratrien-17-one], the “% of Inhibition of the Type 3 17β-HSD Activity” value in series [1] (3.10^−6 M inhibitor) was 91%; in series [1] (3.10^−7 M inhibitor), 73%.

For the compound `COCOc1ccc2c(c1)CC[C@@H]1[C@@H]2CC[C@]2(C)C(=O)CC[C@@H]12` [EM-1070, 3-Methyloxymethyloxy-1,3,5(10)-estratrien-17-one], the “% of Inhibition of the Type 3 17β-HSD Activity” value stood at 90% in series [1] (3.10^−6 M inhibitor) and 57% in series [1] (3.10^−7 M inhibitor).

Consider `CCCCOc1ccc2c(c1)CC[C@@H]1[C@@H]2CC[C@]2(C)C(=O)CC[C@@H]12` [EM-1074, 3-Butyloxy-1,3,5(10)-estratrien-17-one], for which the “% of Inhibition of the Type 3 17β-HSD Activity” value in series [1] (3.10^−6 M inhibitor) was 92%; in series [1] (3.10^−7 M inhibitor) it was 62%.

In series [1], `C[C@]12CC[C@@H](O)C[C@@H]1CC[C@@H]1[C@@H]2CC[C@]2(C)C(=O)CC[C@@H]12` [androsterone, reference compound] gave a 50% inhibitory concentration (IC50) of 200 nM.

`CSCCSc1ccc2c(c1)CC[C@@H]1[C@@H]2CC[C@]2(C)C(=O)CC[C@@H]12` [EM-1065, 3-Methylthioethylthio-Estra-1,3,5(10)-trien-17-one]: the melting point amounted to 74 °C. Further, the “% of Inhibition of the Type 3 17β-HSD Activity” value in series [1] (3.10^−6 M inhibitor) turned out to be 94%. Also, in series [1] (3.10^−7 M inhibitor), the “% of Inhibition of the Type 3 17β-HSD Activity” value was 63%.

Take `C[C@]12CC[C@](O)(Cc3ccccc3)C[C@@H]1CC[C@@H]1[C@@H]2CC[C@]2(C)C(=O)CC[C@@H]12` [CS-213, 3β-benzyl-3α-Hydroxy-5α-androstane-17-one]: it took 31 ± 4 nM to reach half-maximal inhibition in series [1] (IC50).
